# Measurements from publication PMC4305313, “A Novel Phthalimide Derivative, TC11, Has Preclinical Effects on High-Risk Myeloma Cells and Osteoclasts” (PLoS ONE, 2015).
# Molecular target: T1, nucleophosmin 1 (NPM1) (Homo sapiens, UniProt P06748)
# T1 construct: full length of NPM1, recombinant, expressed in E. coli
# Experiment: SPR (Biacore […], NPM1 immobilized on NTA chip)
# Assay type: binding
# T1 sequence (P06748 whole entry): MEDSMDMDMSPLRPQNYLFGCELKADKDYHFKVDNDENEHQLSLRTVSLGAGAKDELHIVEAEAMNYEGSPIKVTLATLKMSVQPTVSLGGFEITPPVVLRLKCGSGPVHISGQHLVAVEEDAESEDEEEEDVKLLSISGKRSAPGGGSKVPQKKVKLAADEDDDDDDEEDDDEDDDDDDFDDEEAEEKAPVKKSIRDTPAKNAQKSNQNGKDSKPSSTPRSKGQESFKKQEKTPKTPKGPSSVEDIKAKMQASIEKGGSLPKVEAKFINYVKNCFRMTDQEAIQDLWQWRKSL
row,Kd [nM],Structure (SMILES)
1,62.3,"CC(C)c1cccc(C(C)C)c1N1C(=O)c2ccc(N)cc2C1=O [TC11, 2-(2,6-diisopropylphenyl)-5-amino-1H-isoindole-1,3-dione]"
2,766,Nc1cccc2c1CN(C1CCC(=O)NC1=O)C2=O (centres unmarked) [lenalidomide]
